Data taken from ChEMBL document CHEMBL5338751, “Discovery of the First-in-Class Intestinal Restricted FXR and FABP1 Dual Modulator ZLY28 for the Treatment of Nonalcoholic Fatty Liver Disease” (J Med Chem, 2023).
Calls of active or inactive are those of the source. The calls are words filed in the database; no cut-off is given here.

What was measured:
Mus musculus [1] = assay: In vivo inhibition of FABP1 in western diet and CCl4-induced nonalcoholic steatohepatitis C57BL/6 mouse assessed as reduction in NEFA uptake in fecal at 20 mg/kg, po administered for 12 weeks starting from week 8 and change in dose for every 5 days; type: functional, organism-based; conditions: time 4.0 weeks
[2] = Ratio of drug level in ileum to plasma in C57BL/6 mouse at 20 mg/kg, po administered for 5 days and measured after 1 hr post final dose by LC-MS analysis
Estrogen receptor beta = Estrogen receptor beta (Homo sapiens, UniProt Q92731); assay: Activation of Gal-DBD and NHRLBD fused ERbeta (unknown origin) transfected in African green monkey CV-1 cells by luciferase reporter assay; type: cell-based
[3] = target: T1, Fatty acid-binding protein, liver (Homo sapiens) (UniProt P07148); assay: Displacement of 8-anilino-1-naphthalene-sulfonic acid from FABP1 (unknown origin) at 10 uM incubated for 3 mins by fluorescence based assay relative to control
T1 sequence (whole entry): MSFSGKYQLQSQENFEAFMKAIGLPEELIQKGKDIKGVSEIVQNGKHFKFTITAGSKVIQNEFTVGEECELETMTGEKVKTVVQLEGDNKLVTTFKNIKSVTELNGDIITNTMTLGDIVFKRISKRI

[4] = target: T2, Peroxisome proliferator-activated receptor gamma (Homo sapiens, UniProt P37231); assay: Agonist activity at PPARgamma (unknown origin) transfected in HEK293 cells incubated for 18 hrs by renilla/firefly based dual-glo luciferase assay; type: cell-based
T2 sequence (P37231 whole entry): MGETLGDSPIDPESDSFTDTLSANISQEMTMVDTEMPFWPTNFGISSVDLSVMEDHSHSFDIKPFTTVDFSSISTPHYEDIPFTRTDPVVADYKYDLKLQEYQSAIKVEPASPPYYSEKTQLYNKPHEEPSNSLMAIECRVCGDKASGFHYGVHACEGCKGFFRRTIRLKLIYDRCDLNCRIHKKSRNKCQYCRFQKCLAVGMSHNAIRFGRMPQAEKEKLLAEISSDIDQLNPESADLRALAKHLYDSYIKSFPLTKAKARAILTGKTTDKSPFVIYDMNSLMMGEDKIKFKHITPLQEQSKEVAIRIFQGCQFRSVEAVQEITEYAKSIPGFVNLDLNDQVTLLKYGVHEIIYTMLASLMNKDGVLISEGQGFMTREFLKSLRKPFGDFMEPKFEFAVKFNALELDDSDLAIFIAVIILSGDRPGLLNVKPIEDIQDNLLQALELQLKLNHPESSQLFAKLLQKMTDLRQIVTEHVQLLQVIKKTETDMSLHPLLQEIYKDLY

[5] = Activation of Gal-DBD and NHRLBD fused RXRalpha (unknown origin) transfected in African green monkey CV-1 cells by luciferase reporter assay; type: cell-based; conditions: Homo sapiens
[6] = Drug concentration in C57BL/6 mouse plasma at 20 mg/kg, po administered for 5 days and measured after 1 hr post final dose by LC-MS analysis; type: ADME, organism-based; conditions: time 5 day
Glucocorticoid receptor = Glucocorticoid receptor (Homo sapiens, UniProt P04150); assay: Activation of Gal-DBD and NHRLBD fused GR (unknown origin) transfected in African green monkey CV-1 cells by luciferase reporter assay; type: cell-based
Mus musculus [7] = assay: Anti-NASH activity in western diet and CCl4-induced nonalcoholic steatohepatitis C57BL/6 mouse assessed as reduction in IL6 level at 20 mg/kg, po administered for 12 weeks starting from week 8 and change in dose for every 5 days by ELISA; type: functional, organism-based; conditions: time 4.0 weeks
[8] = target: Fatty acid-binding protein, heart (Homo sapiens, UniProt P05413); assay: Displacement of 8-anilino-1-naphthalene-sulfonic acid from FABP3 (unknown origin) incubated for 3 mins by fluorescence based assay
[9] = target: T3, Bile acid receptor (Mus musculus) (UniProt Q60641); assay: In vivo activation of FXR pathway in western diet and CCl4-induced nonalcoholic steatohepatitis C57BL/6 mouse model assessed as downregulation of CYP7A1 mRNA level in […] at 20 mg/kg, po administered for 12 weeks starting from week 8 and change in dose for every 5 days; type: functional, organism-based; conditions: time 4.0 weeks
T3 sequence (whole entry): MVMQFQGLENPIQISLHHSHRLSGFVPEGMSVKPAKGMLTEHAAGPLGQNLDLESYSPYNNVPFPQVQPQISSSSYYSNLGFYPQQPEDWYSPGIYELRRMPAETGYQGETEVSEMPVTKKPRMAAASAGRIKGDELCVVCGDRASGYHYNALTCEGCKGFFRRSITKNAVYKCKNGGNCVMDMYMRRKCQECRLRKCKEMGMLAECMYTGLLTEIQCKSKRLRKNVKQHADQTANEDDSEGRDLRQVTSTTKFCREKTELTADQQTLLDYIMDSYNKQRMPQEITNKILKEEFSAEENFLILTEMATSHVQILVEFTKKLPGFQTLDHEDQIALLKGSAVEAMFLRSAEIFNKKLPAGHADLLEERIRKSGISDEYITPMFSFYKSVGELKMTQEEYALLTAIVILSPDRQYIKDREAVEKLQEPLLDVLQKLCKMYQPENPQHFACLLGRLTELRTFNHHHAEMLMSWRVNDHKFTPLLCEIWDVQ

[10] = Drug concentration in C57BL/6 mouse liver at 20 mg/kg, po administered for 5 days and measured after 1 hr post final dose by LC-MS analysis; type: ADME, organism-based; conditions: time 5 day, read-out: Ct
[11] = Subacute toxicity in ICR mouse assessed as abnormal behaviour at 500 mg/kg/day, po administered for 14 days; type: organism-based; conditions: in vivo, 336 h, time 14 day
[12] = Subacute toxicity in ICR mouse assessed as changes in animal growth at 500 mg/kg/day, po administered for 14 days; type: organism-based; conditions: in vivo, 336 h, time 14 day
Mus musculus [13] = assay: Anti-NASH activity in western diet and CCl4-induced nonalcoholic steatohepatitis C57BL/6 mouse assessed as alleviation of ballooning at 20 mg/kg, po administered for 12 weeks starting from week 8 and change in dose for every 5 days; type: functional, organism-based; conditions: time 4.0 weeks
[14] = Subacute toxicity in ICR mouse assessed as changes in serum ALT level at 500 mg/kg/day, po administered for 14 days; type: organism-based; conditions: in vivo, 336 h, time 14 day
[15] = Subacute toxicity in ICR mouse assessed as changes in serum DBIL level at 500 mg/kg/day, po administered for 14 days; type: organism-based; conditions: in vivo, 336 h, time 14 day
[16] = target: T2, Peroxisome proliferator-activated receptor gamma; assay: Inhibition of PPARgamma (unknown origin) transfected in HEK293 cells incubated for 18 hrs in presence of rosiglitazone by dual luciferase reporter assay; type: cell-based
Mus musculus [17] = assay: Antioxidant activity in western diet and CCl4-induced nonalcoholic steatohepatitis C57BL/6 mouse model assessed as increase in SOD level at 20 mg/kg, po administered for 12 weeks starting from week 8 and change in dose for every 5 days; type: functional, organism-based; conditions: time 4.0 weeks
[18] = target: T3, Bile acid receptor (Mus musculus); assay: In vivo activation of FXR pathway in western diet and CCl4-induced nonalcoholic steatohepatitis C57BL/6 mouse model assessed as upregulation of SHP gene expression in ileum at 20 mg/kg, po administered for 12 weeks starting from week 8 and change in dose for every 5 days by RT-PCR analysis; type: functional, organism-based; conditions: time 4.0 weeks
[19] = Ratio of drug level in liver to plasma in C57BL/6 mouse at 20 mg/kg, po administered for 5 days and measured after 1 hr post final dose by LC-MS analysis
[20] = Subacute toxicity in ICR mouse assessed as changes in serum AST level at 500 mg/kg/day, po administered for 14 days; type: organism-based; conditions: in vivo, 336 h, time 14 day

Chain of Fatty acid-binding protein, heart (P05413 whole entry): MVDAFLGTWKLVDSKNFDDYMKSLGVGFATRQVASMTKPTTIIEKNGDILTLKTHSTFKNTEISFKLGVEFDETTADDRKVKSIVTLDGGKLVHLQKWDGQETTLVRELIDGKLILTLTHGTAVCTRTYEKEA
Chain of Estrogen receptor beta (Q92731 whole entry, the tested form may be a part): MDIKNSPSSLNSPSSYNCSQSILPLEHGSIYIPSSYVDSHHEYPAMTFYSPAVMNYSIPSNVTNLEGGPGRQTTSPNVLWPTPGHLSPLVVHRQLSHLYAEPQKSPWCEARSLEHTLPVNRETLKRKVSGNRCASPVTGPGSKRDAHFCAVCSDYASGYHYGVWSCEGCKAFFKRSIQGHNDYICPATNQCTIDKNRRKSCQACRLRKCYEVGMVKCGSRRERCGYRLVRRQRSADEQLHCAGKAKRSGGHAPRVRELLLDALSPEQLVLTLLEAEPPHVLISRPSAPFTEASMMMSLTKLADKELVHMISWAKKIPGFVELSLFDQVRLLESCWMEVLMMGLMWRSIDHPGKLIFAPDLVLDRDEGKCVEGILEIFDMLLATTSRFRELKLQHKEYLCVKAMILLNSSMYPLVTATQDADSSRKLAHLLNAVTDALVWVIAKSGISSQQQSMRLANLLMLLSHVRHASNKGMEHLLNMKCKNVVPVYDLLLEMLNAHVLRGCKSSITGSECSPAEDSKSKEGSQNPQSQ
Chain of Glucocorticoid receptor (P04150 whole entry, the tested form may be a part): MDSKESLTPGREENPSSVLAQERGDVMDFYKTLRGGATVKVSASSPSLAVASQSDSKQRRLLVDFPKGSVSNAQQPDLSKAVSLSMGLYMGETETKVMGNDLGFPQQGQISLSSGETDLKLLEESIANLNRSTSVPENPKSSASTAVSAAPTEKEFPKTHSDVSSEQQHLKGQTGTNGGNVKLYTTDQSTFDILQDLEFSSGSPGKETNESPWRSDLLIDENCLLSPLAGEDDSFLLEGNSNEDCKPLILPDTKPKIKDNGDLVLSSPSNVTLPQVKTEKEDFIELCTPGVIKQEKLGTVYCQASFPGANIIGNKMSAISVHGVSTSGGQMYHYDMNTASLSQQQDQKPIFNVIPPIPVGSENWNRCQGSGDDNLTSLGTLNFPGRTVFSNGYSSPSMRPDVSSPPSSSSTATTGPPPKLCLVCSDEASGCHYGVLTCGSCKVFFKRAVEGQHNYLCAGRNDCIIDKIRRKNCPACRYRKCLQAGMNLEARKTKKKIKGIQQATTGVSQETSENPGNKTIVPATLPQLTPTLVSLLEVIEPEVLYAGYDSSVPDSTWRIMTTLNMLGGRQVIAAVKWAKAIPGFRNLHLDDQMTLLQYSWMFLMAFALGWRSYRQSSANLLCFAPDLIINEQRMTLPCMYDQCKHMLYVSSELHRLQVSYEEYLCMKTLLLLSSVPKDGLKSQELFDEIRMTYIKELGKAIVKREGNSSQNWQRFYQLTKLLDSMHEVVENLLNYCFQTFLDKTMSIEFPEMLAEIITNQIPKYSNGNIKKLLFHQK

O=C(O)C1(c2cccc(-c3ccc(OCc4c(-c5c(Cl)cccc5Cl)noc4C4CC4)cc3)c2)CC1
Activity (Mus musculus [1]): Active
Kp at 120 h [2]: 104
EC50 (Estrogen receptor beta): > 10 µM
inhibition [3]: 83.6%
EC50 [4]: > 10 µM
EC50 [5]: > 10 µM
concentration at 120 h [6]: 29 ng/mL
EC50 (Glucocorticoid receptor): > 10 µM
Activity (Mus musculus [7]): Active
IC50 [8]: > 30 µM
Activity [9]: Active
concentration at 120 h [10]: 37.2 ng/g
Activity [11]: Non-Toxic
Activity [12]: Non-Toxic
Activity (Mus musculus [13]): Active
Activity [14]: Non-Toxic
Activity [15]: Non-Toxic
IC50 [16]: > 10 µM
Activity (Mus musculus [17]): Active
Activity [18]: Active
Kp at 120 h [19]: 5.1
Activity [20]: Non-Toxic
